In brackets after ≈: the same amount, converted by molar mass. Several values for one entry are separate records, joined by “and”; a condition that tells them apart may be missing. Equal entries are not always repeated. Entries after “also recorded” stand apart in the source; their conditions may differ.
How the values were obtained:
[1] = disclosed in WO2017066775A1, cited from earlier work
[2] = Compressibility (tablet hardness, tensile strength); assay type: physicochemical
Procedure: An ENERPAC manual tablet press was used for compression. 80 mg of Form CSI of the present disclosure and prior art Form C were weighed and added into the dies of a round tooling (ensuring the isotropy of tables), compressed at 10 KN manually, and then stored at room temperature for 24 h until complete elastic recovery. Hardness (H) was tested with an intelligent tablet hardness tester. Diameter (D) and thickness (L) were tested with a caliper. […] Under a certain force, the greater the tensile strength, the better the compressibility.

[3] = Intrinsic dissolution rate in pH 6.8 PBS; assay type: physicochemical; conditions: for IDR / Cumulative dissolution: 37° C.; for Cumulative dissolution: 100 rpm; for Slope: regression line of data within 8-15 minutes
Procedure: (§1) Solubility measurement for solubility, dissolution, and intrinsic dissolution rate in PBS in the present disclosure:
The whole pellet was transferred to a dissolution apparatus to test the intrinsic dissolution rate. The slope (in μg/min) of the regression line was calculated according to the data within 8-15 minutes. Intrinsic dissolution rate (IDR) was further calculated according to the slope (in μg/min/cm^2).

[4] = In vitro dissolution of drug product (tablet) in pH 6.8 PBS; assay type: physicochemical; conditions: for Cumulative dissolution: drug product of example 16, 30 mg, 37° C., paddle 75 rpm
[5] = FaSSIF (pH 6.5, 37° C.); disclosed in WO2017066775A1; cited from earlier work
[6] = Mechanical stability (tableting, grinding; XRPD); assay type: physicochemical
Procedure: 20 mg of Form CSI was weighed into the die of 16 mm round tooling (IDR punch), and tableted by ENERPAC manual tablet press with 3 kN, 7 kN, and 14 kN pressure.
A small amount of Form CSI was grounded manually for 5 minutes in a mortar.

[7] = Kinetic solubility in pH7.4 PBS, FaSSIF and FeSSIF; assay type: physicochemical; conditions: for solubility at 24 h / solubility at 34 h / solubility at 48 h: thermodynamic from solid
Procedure: Solubility measurement for freebase content in upadacitinib freebase acetic acid solvate of the present disclosure. Solubility measurement for upadacitinib freebase acetic acid solvate of the present disclosure in FaSSIF and FeSSIF:
as §1
The solubility of Form C was disclosed in WO2017066775A1. In order to have a comparison with Form C, solubility of Form CSI was measured. Saturated solutions of Form CSI of the present disclosure were prepared with pH7.4 PBS, pH6.5 FaSSIF and pH5.0 FeSSIF at 25° C. or 37° C. After equilibration for 24 h, 34 h and 48 h, the saturated solutions were obtained by filtration. The concentrations of compound I in the saturated solutions were measured by high performance liquid chromatography (HPLC) and the results are listed in Table 8.

[8] = Particle size distribution; assay type: physicochemical; conditions: wet mode, Isopar G, after 30 seconds of ultrasound
Procedure: The particle size distribution data in the present disclosure were acquired by a Mastersizer 3000 laser particle size analyzer of Malvern. The test is carried out in wet mode by Hydro MV dispersing device, and the dispersion medium is Isopar G. The method parameters of the laser particle size analyzer are as follows:
The mixture was mixed thoroughly and transferred into the Hydro MV dispersing device. The experiment started when the obscuration is in an appropriate range. The particle size distribution was tested after 30 seconds of ultrasound. The particle size distribution (PSD) patterns are substantially as depicted in FIG. 15 (Form CSI) and FIG. 16 (Form C).

[9] = Storage stability of drug substance (XRPD before and after storage); assay type: physicochemical; conditions: for Solid Form after storage: sealed
Procedure: Solid samples of Form CSI in the present disclosure were sealed and stored under different conditions of 4° C., 25° C./60% RH, 40° C./75% RH, and 60° C./75% RH. Crystalline form was checked by XRPD before and after storage.

[10] = Crystalline form before and after formulation process (XRPD); assay type: physicochemical
From the text: Form CSI of the present disclosure was made into tablet according to the formulation in Table 15 and process in Table 16. Crystalline forms before and after formulation were checked by XRPD, and the XRPD pattern overlay is substantially as depicted in FIG. 17.
Crystalline forms before and after formulation were checked by XRPD, and the comparison of XRPD patterns are substantially as depicted in FIG. 18.

[11] = grounded manually for 5 minutes in a mortar
[12] = PBS pH 7.4, aqueous buffer, pH 7.4 PBS, 25° C.

For `CC[C@@H]1CN(C(=O)NCC(F)(F)F)C[C@@H]1c1cnc2cnc3[nH]ccc3n12` [Form A], the Crystallinity and stability [1] is given as “poor crystallinity and stability” and the Dehydration [1] is given as “can be easily dehydrated to form amorphous”.
With `CC[C@@H]1CN(C(=O)NCC(F)(F)F)C[C@@H]1c1cnc2cnc3[nH]ccc3n12` [Form C in WO2017066775A1, (3S,4R)-3-ethyl-4-(3H-imidazo[1,2-a]pyrrolo[2,3-e]pyrazine-8-yl)-N-(2,2,2-trifluoroethyl) pyrrolidine-1-carboxamide, reference compound] the Mean tensile strength ([2]; 80 mg compressed at 10 KN) was 0.69 MPa, the IDR [3] was 81.6204 μg/min/cm^2 and the Cumulative dissolution ([3]; 8 min) was 94.7 µg. It also gave a Cumulative dissolution ([3]; 10 min) of 207.4 µg, a Cumulative dissolution ([3]; 15 min) of 388.1 µg and a Slope [3] of 40.8102 µg/min. The Cumulative dissolution ([4]; 0 min) was 0.0%, the Cumulative dissolution ([4]; 5 min) was 22.7% and the Cumulative dissolution ([4]; 10 min) was 32.6%. For the same compound, the Cumulative dissolution ([4]; 15 min) was 39.2%, the Cumulative dissolution ([4]; 20 min) was 44.4% and the Cumulative dissolution ([4]; 30 min) was 51.5%. The Cumulative dissolution ([4]; 45 min) was 59.5%, the Cumulative dissolution ([4]; 60 min) was 65.2% and the Solubility [5] was 220 µg/mL (≈ 0.578 mM).
With `CC[C@@H]1CN(C(=O)NCC(F)(F)F)C[C@@H]1c1cnc2cnc3[nH]ccc3n12` [Form CSI, (3S,4R)-3-ethyl-4-(3H-imidazo[1,2-a]pyrrolo[2,3-e]pyrazine-8-yl)-N-(2,2,2-trifluoroethyl) pyrrolidine-1-carboxamide] the “Crystalline state after tableting” value ([6]; 3 kN, 7 kN, and 14 kN pressure) was “does not change”, the Crystallinity after tableting ([6]; 3 kN, 7 kN, and 14 kN pressure) was “remains substantially unchanged” and the “Crystalline state after grinding” value [6, 11] was “does not change; also recorded: remains unchanged after grinding”. For the same compound, the Crystallinity after grinding [6, 11] was “remains substantially unchanged”, the Mean tensile strength ([2]; 80 mg compressed at 10 KN) was 1.53 MPa and the Hardness ([2]; 80 mg compressed at 10 KN, tablets No. 1-3) was 3.53 kgf and 3.06 kgf and 3.43 kgf. The Tensile strength ([2]; 80 mg compressed at 10 KN, tablets No. 1-3, T=2H/πDL*9.8) was 1.57 MPa and 1.43 MPa and 1.58 MPa, the “Compressibility compared with Form C” value ([2]; compressed at 10 KN) was “better compressibility than Form C in WO2017066775A1” and the solubility at 24 h [7, 12] was 790 µg/mL (≈ 2.08 mM). For the same compound, the solubility at 34 h [7, 12] was 710 µg/mL (≈ 1.87 mM), the solubility at 48 h [7, 12] was 660 µg/mL (≈ 1.74 mM) and the “Solubility compared with Form C” value ([7]; pH7.4 PBS, pH6.5 FaSSIF and pH5.0 FeSSIF) was “higher than that of Form C”. For the same compound, the solubility at 24 h ([7]; FaSSIF (pH 6.5, 37° C.)) was 3800 µg/mL (≈ 9.99 mM), the solubility at 34 h ([7]; FaSSIF (pH 6.5, 37° C.)) was 4100 µg/mL (≈ 10.8 mM) and the solubility at 48 h ([7]; FaSSIF (pH 6.5, 37° C.)) was 4100 µg/mL (≈ 10.8 mM). The solubility at 24 h ([7]; FeSSIF (pH 5.0, 37° C.)) was 3100 µg/mL (≈ 8.15 mM), the solubility at 34 h ([7]; FeSSIF (pH 5.0, 37° C.)) was 3000 µg/mL (≈ 7.89 mM) and the solubility at 48 h ([7]; FeSSIF (pH 5.0, 37° C.)) was 3100 µg/mL (≈ 8.15 mM). It also gave an IDR [3] of 665.4630 μg/min/cm^2, a Cumulative dissolution ([3]; 8 min) of 746.1 µg and a Cumulative dissolution ([3]; 10 min) of 1458.8 µg. For the same compound, the Cumulative dissolution ([3]; 15 min) was 3087.0 µg, the Slope [3] was 332.7315 µg/min and the “Dissolution rate of drug product compared with Form C” value [4] was “obviously better than that of Form C in WO2017066775A1”. It also gave a Cumulative dissolution ([4]; 0 min) of 0.0%, a Cumulative dissolution ([4]; 5 min) of 28.7% and a Cumulative dissolution ([4]; 10 min) of 46.4%. It also gave a Cumulative dissolution ([4]; 15 min) of 53.6%, a Cumulative dissolution ([4]; 20 min) of 57.5% and a Cumulative dissolution ([4]; 30 min) of 61.3%. The Cumulative dissolution ([4]; 45 min) was 64.9%, the Cumulative dissolution ([4]; 60 min) was 67.3% and the “Particle size distribution compared with Form C in WO2017066775A1” value [8] was “more uniform particle size distribution”. For the same compound, the “Time the crystalline form kept stable” value ([9]; 4° C.) was “at least 6 months”, the “Chemical purity during storage” value ([9]; 4° C., 40° C./75% RH and 60° C./75% RH) was “remains substantially unchanged” and the “Solid Form after storage” value ([9]; 4° C., 6 months) was “Form CSI”. The “Chemical purity during storage” value ([9]; 25° C./60% RH) was “remains substantially unchanged”, the “Solid Form after storage” value ([9]; 25° C./60% RH, 6 months) was “Form CSI” and the “Solid Form after storage” value ([9]; 40° C./75% RH, 2 weeks) was “Form CSI”. The “Solid Form after storage” value ([9]; 60° C./75% RH, 2 weeks) was “Form CSI”, the “Physical stability before and after formulation process” value ([10]; tablet of Example 15 (Table 15, Table 16)) was “good physical stability” and the “Crystalline form after formulation process” value ([10]; tablet of Example 16 (Table 17, Table 18)) was “remains unchanged”.
For `CC[C@@H]1CN(C(=O)NCC(F)(F)F)C[C@@H]1c1cnc2cnc3[nH]ccc3n12` [Form D], the Form conversion ([1]; high water activity) is given as “will convert to Form C”.

Source: US20220002306A1, “CRYSTAL FORM OF UPADACITINIB AND PREPARATION METHOD AND USE THEREOF” (CRYSTAL PHARMACEUTICAL (SUZHOU) CO., LTD., priority 2018, published 2022)
